According to US12187672B2, “1,2-diacylglycerol compound, preparation method therefor, and immunomodulator containing same as active ingredient” (ENZYCHEM LIFESCIENCES CORPORATION, priority 2018, dated 2025):

B1: IL-4: IL-4 used to induce STAT6 activity in A549 cells (protein, UniProt P05112 25-153, looked up)
Interleukin-4: HKCDITLQEIIKTLNSLTEQKTLCTELTVTDIFAASKNTTEKETFCRAATVLRQFYSHHEKDTRCLGATAQQFHRHKQLIRFLKRLDRNLWGLAGLNSCPVKEANQSTLENFLERLKTIMREKYSKCSS

Key:
[1] = tested on: CXCL8 (IL-8); test: CXCL8 (IL-8) expression reduction in Gemcitabine-treated THP-1 cells (ELISA); type: cell-based, human
Protocol: In RPMI (Hyclone, Thermo Scientific) medium to which 10% Fetal Bovine Serum was added, THP-1 cells, a human macrophage family, were suspended at a concentration of 1×10^5 cells/ml, and culture was conducted in a 5% CO2 humidified incubator at 37° C. The cultured THP-1 cells were inoculated into a 12 well plate by 1×10^6 cells/ml and stabilized for 30 minutes. Then, the culture solution was treated with a glycerol derivative compounds of the type shown in Table 6 below for 1 hour and then was treated with Gemcitabine (2 μg/ml) of a cell stimulator, and subsequent further incubation was conducted for 24 hours. Thereafter 1.5 ml of the culture supernatant was collected for each well and centrifuged (at 3000 rpm, 5 minutes) to recover the supernatant. The CXCL8 (IL-8) level in the recovered supernatant was measured according to the manual provided by the human IL-8 ELISA set (BD Biosciences). The day before ELISA was carried out, the IL-8 capture antibody was diluted in phosphate buffered saline, coated on a microwell, and then stored at 4° C. overnight. Each well was washed three times with a buffer solution and then blocked with 2% Bovine Serum Albumin (BSA) for 1 hour at room temperature. After washing with washing buffer solution three times, 100 μl of sample was dispensed into each well and left at room temperature for 2 hours. Detection antibody which was washed 3 times with washing buffer and diluted was dispensed into each well and allowed to react at room temperature for 1 hour and left at room temperature for 1 hour. Thereafter, the secondary HRP conjugated antibody was reacted at room temperature for 30 minutes, washed three times with a washing buffer, and treated with 50 μl of stop solution for each well, and then the optical density was measured at 450 nm with an ELISA microplate leader.

[2] = tested on: HL-60 cells; test: Migration of HL-60 cell line toward THP-1 culture supernatant (transmigration assay); type: cell-based, human
Protocol: In RPMI (Hyclone, Thermo Scientific) medium to which 10% Fetal Bovine Serum was added, THP-1 cells, a human macrophage family, were subcultured at a concentration of 1×10^5 cells/ml, and culture was conducted in a 5% CO2 humidified incubator at 37° C. In order to prepare the THP-1 cell culture solution to be treated in the lower well during the transmigration assay, first, the cultured THP-1 cells were inoculated into a 12 well plate by 1×10^6 cells/ml and stabilized for 30 minutes. Then, the culture solution was treated with a glycerol derivative compounds of the type shown in Table 7 below for 1 hour and then was treated with Gemcitabine (2 μg/ml) of a cell stimulator, and subsequent further incubation was conducted for 24 hours. Thereafter 1.5 ml of the culture supernatant was collected for each well and centrifuged (at 3000 rpm, 5 minutes) to recover the supernatant. The CXCL8 (IL-8) level in the recovered supernatant was measured according to the manual provided by Cultrex 96 well Laminin Cell Invasion assay. The day before Transmigration assay was carried out, a 1× Lamin I solution was treated in the upper Invasion Chamber and coated. Thereafter, in RPMI (Hyclone, Thermo Scientific) medium to which 10% Fetal Bovine Serum was added, the cultured HL-60 cells were despensed of 5×10^4 cells/chamber, and 150 μl of the THP-1 culture supernatant prepared in advance was added to the lower chamber. Thereafter the upper chamber was removed, and the cells were attached to the bottom of the lower chamber by a centrifuge, and then the supernatant was removed. Cell dissociation/Calcein-AM solution was added and reacted for 1 hour. Then, the value obtained using a fluorescence spectroscopy was calculated by converting the number of cells.

[3] = tested on: STAT6; test: IL-4-induced STAT6 activity, pGL4-STAT6 luciferase reporter in A549 cells; type: cell-based; conditions: IL-4 alone
Protocol: In DMEM (Dulbecco Modified Eagle Medium, Hyclone, Thermo Scientific) medium to which 10% Fetal Bovine Serum was added, A549 cells were subcultured at a concentration of 1×10^5 cells/ml, and culture was conducted in a 5% CO2 humidified incubator at 37° C. The cultured A549 cells were inoculated into a 48 well plate by 1×10^5 cells/ml and stabilized for 18 hours. Thereafter, pGL4-STAT6 reporter vector containing a STAT6 binding promoter portion was mixed with Attractene to induce complex formation at room temperature for 15 minutes. This complex was treated with the cells and then further incubated for 24 hours. Thereafter, the culture solution was treated with a glycerol derivative compounds of the type shown in Table 9 and 10 below for 1 hour, and then IL-4 (2 ng/ml or 10 ng/ml) was further incubated for 20 hours for STAT6 activity. Thereafter, the culture supernatant was removed for each well, and the remaining cells were lysed with a cell lysis buffer, and then cell lysate was recovered. 90 μl of luciferase reagent was mixed with 10 μl of the recovered cell lysate, and the degree of fluorescence was confirmed using a luminometer. The results are shown in Table 9, Table 10, FIG. 9 and FIG. 10 below.

[4] = THP-1 cells treated with Gemcitabine

Molecule	increase of CXCL8 (IL-8) secretion compared to the negative control group [1, 4]	CXCL8 [IL-8] concentration (average ± deviation) ([1]; THP-1 cells, Gemcitabine 2 μg/ml alone)	increase of neutrophil cell migration compared to the negative control group [2, 4]	Number of HL-60 cells migrated through Transwell ([2]; supernatant of THP-1 cells treated with Gemcitabine 2 μg/ml alone)	STAT6 activity_Luciferase activity (average ± deviation) ([3]; concentration printed 2 (head μg/ml; method 2 ng/ml), Table 9)	STAT6 activity_Luciferase activity (average ± deviation) ([3]; concentration printed 10 (head μg/ml; method 10 ng/ml), Table 10)
Nc1ccn([C@@H]2O[C@H](CO)[C@@H](O)C2(F)F)c(=O)n1 [Gemcitabine, reference compound]	about 13 times	104.6 ± 1.5 pg/µL	about twice	5022.9 Cell Number	–	–
B1	–	–	–	–	982.0 ± 38.7	22846.2 ± 2157.3
